ChEMBL document CHEMBL6109096, “Synthesis, anti-allergic rhinitis evaluation and mechanism investigation of novel 1,2,4-triazole-enamides as CB1 R antagonist” (Eur J Med Chem, 2025)
Calls of active or inactive are those of the source. The rule behind the calls is not given here.

What was measured:
[1] = test system: RAW264.7; experiment: Cytotoxicity against mouse RAW264.7 cells assessed as reduction in cell viability at 10 uM incubated for 24 hrs by CCK-8 assay; format: toxicity, cell-based; details: raw264.7, 24 h
[2] = test system: RAW264.7; experiment: Inhibition of IL-1beta (unknown origin) in mouse RAW264.7 relative to control; format: cell-based; details: dose or concentration not given here
[3] = test system: Mus musculus; experiment: Anti-inflammatory activity in ovalbumin-induced allergic rhinitis male Balb/c mouse assessed as reduction in number of eosinophils on nasal lavage fluid at 5 mg/kg, po administered via gavage for 7 days by giemsa staining based analysis; format: functional, organism-based; details: time 7.0 day
[4] = test system: RAW264.7; experiment: Downregulation of p-JNK protein expression in LPS-induced mouse RAW264.7 cells by Western blotting analysis; format: functional, cell-based
[5] = test system: Mus musculus; experiment: Anti-inflammatory activity in ovalbumin-induced allergic rhinitis male Balb/c mouse assessed as reduction in number of goblet cells in nasal mucosal tissues at 5 mg/kg, po administered via gavage for 7 days by PAS staining based analysis; format: functional, organism-based; details: time 7.0 day
[6] = test system: Mus musculus; experiment: Anti-inflammatory activity in ovalbumin-induced allergic rhinitis male Balb/c mouse assessed as reduction in number of cells on nasal lavage fluid at 5 mg/kg, po administered via gavage for 7 days by giemsa staining based analysis; format: functional, organism-based; details: time 7.0 day
[7] = test system: RAW264.7; experiment: Downregulation of P-P65 protein expression in LPS-induced mouse RAW264.7 cells by Western blotting analysis; format: functional, cell-based
[8] = test system: RAW264.7; experiment: Downregulation of p-ERK protein expression in LPS-induced mouse RAW264.7 cells by Western blotting analysis; format: functional, cell-based
[9] = test system: Mus musculus; experiment: Anti-inflammatory activity in ovalbumin-induced allergic rhinitis male Balb/c mouse model assessed as reduction in serum histamine expression at 5 mg/kg, po administered via gavage for 7 days by ELISA; format: functional, organism-based; details: time 7.0 day
[10] = test system: Mus musculus; experiment: Anti-inflammatory activity in ovalbumin-induced allergic rhinitis male Balb/c mouse assessed as reduction in number of mast cells on nasal lavage fluid at 5 mg/kg, po administered via gavage for 7 days by giemsa staining based analysis; format: functional, organism-based; details: time 7.0 day
[11] = test system: RAW264.7; experiment: Downregulation of CB1 R expression in LPS-induced mouse RAW264.7 cells by immunofluorescence staining based analysis; format: functional, cell-based
[12] = test system: Mus musculus; experiment: Anti-inflammatory activity in ovalbumin-induced allergic rhinitis male Balb/c mouse model assessed as reduction in nose scratching at 5 mg/kg, po administered via gavage for 7 days; format: functional, organism-based; details: time 7.0 day
[13] = test system: RAW264.7; experiment: Downregulation of p-P38 intranuclear expression in mouse RAW264.7 cells by immunofluorescence staining based analysis; format: functional, cell-based
[14] = test system: Mus musculus; experiment: Anti-inflammatory activity in ovalbumin-induced allergic rhinitis male Balb/c mouse model assessed as reduction in IgE expression at 5 mg/kg, po administered via gavage for 7 days (reference value: 0.268 +/- 0.045); format: functional; details: time 7 day
[15] = test system: RAW264.7; experiment: Downregulation of p-P38 protein expression in LPS-induced mouse RAW264.7 cells by Western blotting analysis; format: functional, cell-based
[16] = test system: RAW264.7; experiment: Downregulation of p-P38 expression in mouse RAW264.7 cells by immunofluorescence staining based analysis; format: functional, cell-based
[17] = test system: Mus musculus; experiment: Anti-inflammatory activity in ovalbumin-induced allergic rhinitis male Balb/c mouse assessed as reduction in inflammation of nasal mucosal tissue at 5 mg/kg, po administered via gavage for 7 days by H and E staining based analysis; format: functional, organism-based; details: time 7.0 day
[18] = test system: Mus musculus; experiment: Anti-inflammatory activity in ovalbumin-induced allergic rhinitis male Balb/c mouse model assessed as decrease in p-p38 intranuclear expression in nasal mucosal at 5 mg/kg, po administered via gavage for 7 days by immunofluorescence staining based analysis; format: functional, organism-based; details: time 7.0 day
[19] = test system: RAW264.7; experiment: Downregulation of P-IKBalpha protein expression in LPS-induced mouse RAW264.7 cells by Western blotting analysis; format: functional, cell-based
[20] = test system: Mus musculus; experiment: Anti-inflammatory activity in ovalbumin-induced allergic rhinitis male Balb/c mouse model assessed as reduction in IL-4 expression in nasal lavage fluid at 5 mg/kg, po administered via gavage for 7 days by ELISA; format: functional, organism-based; details: time 7.0 day
[21] = test system: Mus musculus; experiment: Anti-inflammatory activity in ovalbumin-induced allergic rhinitis male Balb/c mouse model assessed as reduction in sneezing at 5 mg/kg, po administered via gavage for 7 days; format: functional, organism-based; details: time 7.0 day

CN(/C=C\c1ccccc1)C(=O)c1nc(-c2ccc3ccccc3c2)n(-c2ccccc2)n1
Activity [1]: Non-toxic

CN(/C=C\c1ccccc1)C(=O)c1nc(-c2ccc(F)cc2)n(-c2ccccc2)n1
Activity [1]: Non-toxic

CC(C)c1nc(C(=O)N(C)/C=C\c2ccccc2)nn1-c1ccccc1
Activity [1]: Non-toxic

Cc1cc(C)c(-c2nc(C(=O)N(C)/C=C\c3ccccc3)nn2-c2ccccc2)c(C)c1
Activity [1]: Non-toxic

CN(/C=C\c1ccccc1)C(=O)c1nc(CC(C)(C)C)n(-c2ccccc2)n1
Activity [1]: Non-toxic

Cc1nc(C(=O)N(C)/C=C\c2ccccc2)nn1-c1ccccc1
Activity [1]: Non-toxic

Cc1cccc(-c2nc(C(=O)N(C)/C=C\c3ccccc3)nn2-c2ccccc2)c1
Activity [1]: Non-toxic

CN(/C=C\c1ccccc1)C(=O)c1nc(-c2ccccc2Cl)n(-c2ccccc2)n1
Activity [1]: Non-toxic

CN(/C=C\c1ccccc1)C(=O)c1nc(-c2ccc(C(F)(F)F)cc2)n(-c2ccccc2)n1
Activity [1]: Non-toxic

CN(/C=C\c1ccccc1)C(=O)c1nc(-c2cccs2)n(-c2ccccc2)n1
Activity [1]: Non-toxic

CN(/C=C\c1ccccc1)C(=O)/C=C/c1ccccc1
inhibition [2]: 19%

C[C@@H]1C[C@H]2[C@@H]3CCC4=CC(=O)C=C[C@]4(C)[C@@]3(F)[C@@H](O)C[C@]2(C)[C@@]1(O)C(=O)CO [DEXAMETHASONE]
Activity [3]: Active
Activity [4]: Active
Activity [5]: Active
Activity [6]: Active
Activity [7]: Active
Activity [8]: Active
Activity [9]: Active
Activity [10]: Active
Activity [11]: Active
Activity [12]: Active
Activity [13]: Active
Activity [14]: 0.126
Activity [15]: Active
Activity [16]: Active
Activity [17]: Active
Activity [18]: Active
Activity [19]: Active
Activity [20]: Active
Activity [21]: Active
